# Laboratory results from patent US20030114375A1, “Method for treating cystic fibrosis” (The Government of the USA, Dept of Health and Human …, priority 1994, published 2003).
# “And” between values parts separate entries of the source, which are not always exact repeats. Identical values can stand only once. Like-named read-outs stand apart in the source and are kept apart here.
# Key:
# CFPAC cells [1] = settings: U.S. Pat. No. 5,366,977 / Eidelman et al.; cited from earlier work
# A2a-adenosine receptor = molecular target: T1, A2a-adenosine receptor (Rattus norvegicus, UniProt P30543); experiment: Inhibition of [3H]CGS 21680 binding to A2a receptors; settings: rat striatal membranes, 5 nM [3H]CGS 21680; read-out: Ki, μM(A2)
# T1 construct: Rat cerebral cortical membranes and striatal membranes were prepared; from tissue; host or cells: rat striatal membranes
# T1 sequence (P30543 whole entry): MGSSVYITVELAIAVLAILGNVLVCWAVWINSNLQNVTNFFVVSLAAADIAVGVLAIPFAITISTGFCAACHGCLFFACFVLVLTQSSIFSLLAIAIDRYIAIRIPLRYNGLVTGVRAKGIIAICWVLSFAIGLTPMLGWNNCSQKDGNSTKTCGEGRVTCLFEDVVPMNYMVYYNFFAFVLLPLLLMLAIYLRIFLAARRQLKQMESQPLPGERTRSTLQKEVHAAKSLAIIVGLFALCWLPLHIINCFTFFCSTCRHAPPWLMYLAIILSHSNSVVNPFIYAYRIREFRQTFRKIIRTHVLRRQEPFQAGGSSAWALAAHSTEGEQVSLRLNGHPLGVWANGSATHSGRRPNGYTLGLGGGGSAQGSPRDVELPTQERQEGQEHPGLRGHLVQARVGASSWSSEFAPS
# Protocol: (§1) Solid samples of the adenosine derivatives were dissolved in dimethyl sulfoxide (DMSO) and stored in the art at. −20° C. The stock solutions were diluted with DMSO to a concentration of ≦0.1 mM prior to addition to the aqueous medium. The final concentration of DMSO in the assay medium was generally 2%.
# Membranes (^˜80 μg protein per tube) were incubated for one hour at 25° C. in a total volume of 0.5 ml of a buffer solution consisting of […] tris hydrochloride and 10 mM MgCl2 at pH 7.4. Test drugs were dissolved in DMSO and added in 10 μl aliquots, resulting in a final DMSO concentration of 2%. Non-specific binding was defined using 20 μM 2-chloroadenosine. Filtration was carried out using a Brandel Cell Harvester, as above, using the tris.HCl/MgCl2 buffer recited hereinabove as the washing buffer.
# (§2) At least six different concentrations spanning three orders of magnitude, adjusted appropriately for the IC50 of each compound, were used.
# CFPAC cells [2] = experiment: [36Cl]- efflux from CFPAC cells
# A1-adenosine receptor = molecular target: T2, A1-adenosine receptor (Rattus norvegicus, UniProt P25099); experiment: Inhibition of [3H]N6-phenylisopropyladenosine binding to A1 receptors; settings: for Ki: rat cerebral cortex membranes, 1 nM [3H]PIA, read-out: Ki, μM(A1)
# T2 construct: Rat cerebral cortical membranes and striatal membranes were prepared; from tissue; host or cells: rat cerebral cortex membranes
# T2 sequence (P25099 1-326): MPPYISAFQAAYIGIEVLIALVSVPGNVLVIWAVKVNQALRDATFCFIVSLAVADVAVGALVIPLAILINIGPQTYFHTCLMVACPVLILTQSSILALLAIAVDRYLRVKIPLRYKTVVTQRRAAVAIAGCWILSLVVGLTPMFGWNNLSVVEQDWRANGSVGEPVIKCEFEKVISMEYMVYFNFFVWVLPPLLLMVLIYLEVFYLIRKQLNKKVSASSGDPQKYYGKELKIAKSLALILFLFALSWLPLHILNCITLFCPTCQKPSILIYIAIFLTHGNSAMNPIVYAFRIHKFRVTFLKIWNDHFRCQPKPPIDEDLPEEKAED
# Protocol: as §1
# Inhibition of binding of 1 nM [^3H]N^6-phenylisopropyladenosine (Dupont NEN, Boston, Mass.) to A1 receptors in rat cerebral cortex membranes was measured as described in Schwabe et al., Naunyn-Schmiedeberg's Arch. […] Membranes (^˜100 μg protein per tube) were incubated for 1.5 hours at 37° C. in a total volume of 0.5 ml of 50 mM tris hydrochloride at pH 7.4. Test drugs were dissolved in DMSO and added in 10 μl aliquots, resulting in a final DMSO concentration of 2%. Bound and free radioligand were separated by addition of 3 ml of a buffer containing 50 mM tris hydrochloride, at pH 7.4 at 5° C., followed by vacuum filtration using a Brandel Cell Harvester (Brandel, Gaithersburg, Md.) and a Whatman GF/B glass fiber filter with additional washes totaling 9 ml of buffer. Non-specific binding was determined with 10 μM 2-chloroadenosine.
# as §2
# Iα polypeptide = molecular target: T3, Iα polypeptide (Homo sapiens, UniProt P13569); experiment: Phosphatidylserine liposome aggregation driven by Iα polypeptide; assay type: biochemical; settings: 0.5 μg/ml (0.18 μM) Iα; for Effect on PS liposome aggregation driven by Iα: 2-thio-CPX up to 1 μM, IBMX up to 15 μM
# T3 construct: made in house; host or cells: chemical solid-phase synthesis (Yale University)
# T3 sequence (P13569 with tags, fused parts or gaps): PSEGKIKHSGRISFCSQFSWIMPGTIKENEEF
# Protocol: Liposome aggregation assay: Phosphatidylserine (“PS”, obtained from Avanti) was dissolved in chloroform, and small unilamellar liposomes were prepared by the extrusion process known in the art. A Lipex machine was used to extrude the PS in a buffer consisting of 10 mM Na-HEPES, pH 7.2 and 1 mM EDTA. The liposomes were diluted to a final optical density at 540 nm of 0.01 and incubated with different concentrations of the different polypeptides and/or chloride ion efflux-activating compounds.
# [3] = molecular target: T4, CFTR polypeptide Iα [SEQ ID NO:1] (Homo sapiens, UniProt P13569); experiment: 3H-CPX binding to Iα polypeptide (dot blot filter binding, displacement)
# T4 construct: made in house; host or cells: chemical solid-phase synthesis (Yale University)
# T4 sequence (P13569 with tags, fused parts or gaps): as above
# Protocol: CPX was used as a representative compound known to activate chloride ion efflux from ΔF508 mutant cells. Stock solutions of CPX were prepared in DMSO in the millimolar concentration range. […] For displacement studies, unlabeled CPX, or other xanthine antagonists and nucleotides, were added to the incubation mixture before the radioactive probe. The mixture was then filtered through a nitrocellulose (NC) membrane (Schleicher & Schuell) by using a standard dot blot apparatus. […] The dot blots were then washed five times with 200 μl TRIS buffer-NaCl solutions (50 mM TRIS pH=7.0, 150 mM NaCl), radioactive spots were cut out, and the total was radioactivity determined by liquid scintillation counting.
# CFPAC cells [4] = settings: read from the graphs
Displacement of 3H-CPX binding to Iα [3],Concentration at maximum rate and extent of Iα-driven liposome aggregation (Iα polypeptide) [nM],"Kd ([3]; Scatchard plot, n=4, 100 nM Iα) [µM]",Affinity for A1 receptor (A1-adenosine receptor),Compound,"Activation of chloride efflux from CF cells (words, prior disclosure) (CFPAC cells [1])",Ki (A2a-adenosine receptor) [µM],Conc. max. (nM): concentration at maximum impact upon chloride efflux (CFPAC cells [2]),thresh (nM): minimum concentration required to detect an effect upon chloride efflux (CFPAC cells [2]) [nM],% control: chloride efflux at minimum detection relative to control (CFPAC cells [2]; at threshold concentration),Ki (A1-adenosine receptor) [µM],Effect on PS liposome aggregation driven by Iα (Iα polypeptide),Efflux rate as compared to control (FIGS. 9-12) (CFPAC cells [2]; read from the graphs) [%],Efflux rate as compared to control (FIGS. 9-12) (CFPAC cells [4]) [%]
–,–,–,–,"CCCn1c(=O)c2[nH]c(C34CC5CC(CC3C5)C4)nc2n(CCC)c1=O [Compound 12, 1,3-dipropyl-8-noradamantylxanthine, reference compound]",ineffective,0.38,10 nM,1,120% and 120 ± 5%,0.0013,–,–,–
Displacement of binding was effected,100,0.069 ± 0.027,high affinity,"CCCn1c(=O)c2[nH]c(C3CCCC3)nc2n(CCC)c1=O [Compound 5, 1,3-dipropyl-8-cyclopentylxanthine, reference compound]",promotes chloride efflux,–,30 nM,1,–,–,–,200,–
–,–,–,–,"Cn1c(=O)c2[nH]cnc2n(C)c1=O [Compound 1, theophylline, reference compound]",–,–,100 nM,1,–,–,–,–,200
not effected,–,–,–,"CCCn1c(=O)c2[nH]c(C3CCCC3)nc2n(CCC)c1=S [Compound 8, 2-thio-8-cylcopentyl-1,3-dipropylxanthine, reference compound]",ineffective,0.31,>>10^4 nM,–,–,0.00066,entirely inactive,–,–

Compound,Displacement of 3H-CPX binding to Iα [3],Concentration at maximum rate and extent of Iα-driven liposome aggregation (Iα polypeptide) [nM],"Kd ([3]; Scatchard plot, n=4, 100 nM Iα) [µM]",Affinity for A1 receptor (A1-adenosine receptor),"Activation of chloride efflux from CF cells (words, prior disclosure) (CFPAC cells [1])",Ki (A2a-adenosine receptor) [µM],Conc. max. (nM): concentration at maximum impact upon chloride efflux (CFPAC cells [2]),thresh (nM): minimum concentration required to detect an effect upon chloride efflux (CFPAC cells [2]) [nM],% control: chloride efflux at minimum detection relative to control (CFPAC cells [2]; at threshold concentration),Ki (A1-adenosine receptor) [µM],Effect on PS liposome aggregation driven by Iα (Iα polypeptide),Efflux rate as compared to control (FIGS. 9-12) (CFPAC cells [2]; read from the graphs) [%],Efflux rate as compared to control (FIGS. 9-12) (CFPAC cells [4]) [%]
3-isobutylmethyl xanthine [Compound 3],not effected,–,–,–,–,16,–,–,–,–,entirely inactive,–,–
